According to US8008354B2, “Death receptor sensitizing compounds and methods of use therefor” (Burnham Institute for Medical Research, priority 2006, dated 2011):

Columns and labels:
[1] = test system: PPC-1, OVCAR-3, T47D, MDA-MB-468 and DU 145 cells; assay: MTS viability with CH-11 after FLIP siRNA transfection; assay type: cell-based; details: PPC-1 cells transfected with FLIP siRNA 10 nM
Protocol: FIG. 8. Decreases in FLIP by compound 5809354 are functionally important. (A) PPC-1, OVCAR-3, T47D, and DU 145 cells (2×10^5) were seeded into 35 mm plates and transfected with double-stranded siRNA targeting FLIP (f), control ds RNA (c), or mock transfected with buffer alone (m). At 24 hours after transfection, cells were treated with CH-11 (100 ng/mL) or buffer control. Cell viability was measured by an MTS assay and expressed as a percentage of untreated control cells (mean+SD; n=3). (B) Levels of FLIP protein were measured by immunoblotting. (C) PPC-1 cells (2×10^5) were seeded into 35 mm plates and transfected with siRNAs (10 nM) targeting FLIP or luciferase as a control (CNTRL). At 24 hours after transfection, cells were treated with increasing concentrations of 5809354 with or without CH-11 anti-FAS antibody (100 ng/mL) for an additional 24 hours. Cell viability was measured by an MTS assay, and expressed as a percentage of control untreated cells (mean+SD; n=3).
Transfection of siRNA oligonucleotides. […]
To test the functional importance of decreases in FLIP by 5809354, it was determined whether knocking down FLIP could recapitulate the activity of the molecule and abrogate 5809354's ability to sensitize cells to CH-11. […]

caspase 8 = assay: Caspase activation in PPC-1 cells (FITC-labeled peptides, caspase 8 immunoblot); assay type: cell-based, human; details: 60 μM
Protocol: FIG. 15. 5809354 sensitizes cells to anoikis through a caspase 8 dependent mechanism. (A) PPC-1 cells (5×10^4) were cultured under suspension conditions overnight and then treated with 5809354 in the presence or absence of the pan-caspase inhibitor z-VAD-fink (100 μM). Thirty hours after incubation, anoikis was determined by flow cytometry to detect cell surface annexin V expression and PI uptake. Data represents the mean±SEM percent of viable cells or colonies compared to untreated controls. (B) PPC-1 cells (5×10^4) were cultured in suspension conditions overnight and then treated with 5809354 (60 μM). At increasing times after treatment, caspase activation was detected with FITC-labeled peptides that bind preferentially and irreversibly to caspase 3/7, 8, or 9. Caspase activation was monitored by flow cytometry to quantify the percentage of fluorescently labeled cells. […] At increasing times after incubation, total cellular protein was isolated and analyzed by SDS-PAGE immunoblotting using anti-caspase 8 and anti-actin antibodies. * indicates cleaved caspase 8. […] Thirty hours after incubation, apoptosis was measured by cell surface annexin V expression and PI uptake. […] Ten hours after incubation, cell viability was measured using the MTS assay. […] EGFP expression and nuclear morphology were analyzed by fluorescence microscopy. […]

## 4-(4-chloro-2-methylphenoxy)-N-hydroxybutanamide [compound 5809354]
[1]
  enhancement of CH-11-mediated killing in the presence of FLIP siRNA: the longer enhanced CH-11-mediated killing
Caspase 8; suspension conditions
  sequence of caspase activation: Active caspase 8 was detected prior to activation of caspases 3/7 and 9
Caspase 8; suspension versus adherent conditions
  caspase 8 activation by immunoblot: preferentially activated caspase 8 in cells cultured under suspension but not adherent conditions
